This test relates to 2nd instar larva of Spodoptera frugiperda. In words: Laboratory test with 2nd instar larva of Spodoptera frugiperda on maize leaves. In kind it is in vivo.

With `CNC(=O)c1cc(Cl)cc(C)c1NC(=O)c1cc(Br)nn1-c1ncccc1Cl` [Compound 2, 3-bromo-N-[4-chloro-2-methyl-6-[(methylamino)carbonyl]phenyl]-1-(3-chloro-2-pyridinyl)-1H-pyrazole-5-carboxamide], the “concentration per g of leaf tissue resulting in 50% mortality within 72 h” value was 0.033 micrograms per g of leaf tissu and the “concentration per g of tissue needed to achieve 100% mortality within 72 h” value was 0.037 micrograms per g of tissue.

The record behind these values is patent US20150296781A1, “ACRYLATE/METHACRYLATE-BASED TRIBLOCK COPOLYMER/ANTHRANILIC DIAMIDE COMPOSITIONS FOR PROPAGULE COATING” (priority 2013, published 2015).
